Data on ten molecules can be found in PMC11478322, “1,2,4-Oxadiazole Derivatives: Physicochemical Properties, Antileishmanial Potential, Docking and Molecular Dynamic Simulations of Leishmania infantum Target Proteins” (Molecules, 2024).

Data set [1] is described as follows: Cytotoxicity assay (MTT) in fibroblasts. Format: cell-based. Particulars: mouse, 48 h of treatment, MTT, tested 6.25–200 µM. The protocol: (§1) The cytotoxic potential of Ox1–Ox7 was first evaluated in fibroblasts (L929) and macrophages (J774.G8). For this, 5 × 10^5 cells/mL were seeded in 96-well microplates containing 100 μL of DMEM or RPMI-1640 medium supplemented with 10% fetal bovine serum (FBS) and cultivated for 24 h at 37 °C, under 5% CO2 atmosphere. […] Untreated cells were considered as negative control. The cell viability was measured by spectrometry after 48 h of cultivation using MTT (Sigma-Aldrich, St. Louis, MO, USA) methodology described by Mosmann. The optical densities (OD) of the samples were read in a Glomax Multiplate reader (Promega, Madison, WI, USA) at 540 nm. Each assay was performed in triplicate in three independent experiments. […] The selectivity index (SI) for each compound was calculated as the ratio between the CC50 values obtained for J774.G8 macrophages and fibroblast and the IC50 values for promastigotes. The compound with a higher value of SI was selected for cytotoxicity evaluation in macrophages obtained from BALB/c mice peritoneal exudate (PeM), following the methodology described above.

The nature of data set [2]: Cytotoxicity assay (MTT) in macrophages. The data set is classed as cell-based. Particulars: mouse, 48 h of treatment, MTT, tested 6.25–200 µM. The protocol: as §1
Data set [3] has as its system L. infantum promastigotes. The data set can be described thus: Promastigote viability (CellTiter-Glo ATP). Format: cell-based, L. infantum (BH46 strain). Particulars: for IC50: Leishmania infantum, read-out: IC50 Pro; for SI Pro/L929: ratio CC50 (L929)/IC50 (promastigotes); for SI (promastigotes vs fibroblasts and J774.G8 macrophages): stated as bound; for SI Pro/J774.G8: ratio CC50 (J774.G8)/IC50 (promastigotes). The procedure:
Promastigote forms of L. infantum (BH46 strain) were cultivated at 27 °C in Schneider’s medium, supplemented with 10% (v/v) heat-inactivated fetal bovine serum (FBS, Gibco, Waltham, MA, USA), 100 U/mL penicillin, and 0.01 mg/mL streptomycin. Parasites in the log phase were used in the test of drugs against promastigotes, whereas those obtained in the stationary phase were used to infect peritoneal macrophages. […] The viability of promastigotes was assessed through ATP production using the CellTiter-Glo® Luminescent Cell Viability assay (Promega, Madison, WI, USA), in accordance with the manufacturer’s instructions.
In general terms: In ATP-based viability assays light output follows the ATP content of the culture.

The test system of data set [4] is fibroblasts (L929). In words: Cytotoxicity assay (MTT) in fibroblasts. The data set is classed as cell-based. Particulars: 200 µM, 48 h. The procedure:
as §1

In data set [5] the test system is macrophages (J774.G8). The data set can be described thus: Cytotoxicity assay (MTT) in macrophages. The data set is classed as cell-based. Particulars: 200 µM, 48 h. The protocol: as §1
The nature of data set [6]: Cytotoxicity assay (MTT) in peritoneal macrophages. The data set is classed as cell-based, BALB/c mice. Particulars: BALB/c, mouse, peritoneal macrophages (PeM); peritoneal macrophages, estimated; read-out: CC50 for PeMs. The procedure:
as §1

Data set [7] has as its system peritoneal macrophages from BALB/c mice (PeM). The data set can be described thus: Cytotoxicity assay (MTT) in peritoneal macrophages. The data set is classed as cell-based. The protocol:
as §1

Data set [8] relates to L. infantum amastigotes in PeMs. The data set can be described thus: microbe, parasite or virus in culture. Particulars: for number of intracellular amastigotes / parasites in infected PeMs: glucantime 346.19 µM, Amphotericin B 10.55 µM. The procedure: After initial cultivation, non-adherent cells were removed by washing with fresh RPMI medium. Subsequently, PeMs were infected with stationary promastigote forms of L. infantum at 1:20 PeM/promastigotes ratio. […] After incubation time, the samples were washed in PBS, fixed with methanol, and stained with Giemsa. The percentage of infected macrophages was determined by counting 150 randomly chosen cells in duplicate, and the survival index (SuI) was calculated by multiplying the percentage of infected cells by the mean of amastigotes in infected cells. […] The tests were carried out in duplicate in three independent experiments.

Data set [9] deals with L. infantum promastigotes. The data set can be described thus: Scanning electron microscopy of promastigotes (rounded cells count). The data set is classed as cell-based. Particulars: 48 h, control 5%. The procedure:
To identify alterations in the morphology of promastigotes and amastigotes, scanning (SEM) and transmission (TEM) electron microscopy assays were performed. For SEM, L. infantum promastigotes were treated with once or twice the IC50 concentration of Ox1 for 48 h. Subsequently, the parasites were harvested by centrifugation, washed with 100 mM PBS, pH 7.2, fixed at room temperature, for 1 h in 2.5% glutaraldehyde solution diluted in 0.1 M cacodylate buffer, pH 7.2. Cells were adhered to coverslips pre-coated with poly-L-lysine, post-fixed for 1 h with a solution containing 1% osmium tetroxide, 0.8% potassium ferricyanide, and 5 mM calcium chloride diluted in 0.1 M cacodylate buffer, pH 7.2, in light-protected environment. Then, the cells were dehydrated in graded ethanol series (15–100%) for 10 min at room temperature. Samples were critical-point dried in a LEICA EM CPD300 apparatus (Leica Microsystems, Wetzlar, Hessen, DE, Germany) and then coated with 20 nm gold and observed in a JEOL T-200 scanning electron microscope (JEOL Ltd., Tokyo, Japan). For MET, promastigotes and infected PeMs were treated or not with once or twice IC50 concentration of Ox1, fixed and post-fixed, as described above. For infected–adhered peritoneal macrophages, after the post-fixation, the cells were scraped off the culture dishes with a rubber policeman. […]

In data set [10] the test system is L. infantum promastigotes. In words: Mitochondrial membrane potential, Rhodamine 123 flow cytometry. The data set is classed as cell-based. The protocol:
Afterward, the cells were centrifuged and stained with Rhodamine 123 (10 µg/mL, molecular probes, Invitrogen™, Waltham, MA, USA) in PBS for 15 min at 27 °C, in the dark. […] The changes in the fluorescence intensity for fluorochrome were determined by the variation index calculated as follows: (MT − MC)/MC where MT is the mean fluorescence intensity of treated cells and MC is the mean of fluorescence of control cells without treatment. A total of 20,000 events were acquired, and the data were analyzed with FLOWJO software version 10.2.

In data set [11] the test system is L. infantum amastigotes in PeMs. Also noted: method as in PMID 18660990, PMID 23070424. Particulars: concentration used as positive control; read-out: IC50 of reference drugs; cited from earlier work.
Setting [12] is: promastigotes, 48 h of treatment.
The mark [13] stands for this setting: 24 h, Ox1 8.24, 16.49, 32.98 µM.

Like-named read-outs stand apart in the source and are kept apart here. Bounds are passed on as bounds.

`O=[N+]([O-])c1cccc(-c2noc(NC3CCCCC3)n2)c1` [Ox2, N-Cyclohexyl-3-(3-nitrophenyl)-1,2,4-oxadiazol-5-amine] yielded a melting point of 131 to 133 °C. The molecule further yielded a CC50 at 48 h in data set [1] (L929 fibroblasts) of more than 200 µM. The same molecule gave a CC50 at 48 h in data set [2] (J774.G8 macrophages) of more than 200 µM. Moreover, the IC50 in data set [3] (setting [12]) was 220 ± 3.6 µM. In data set [3], the “SI Pro/L929” value was 1.7; the “SI (promastigotes vs fibroblasts and J774.G8 macrophages)” value is “lower than 5.0”.
`C#CCN(c1nc(-c2ccccc2)no1)C1CCCCC1` [Ox5, N-Cyclohexyl-3-phenyl-N-(prop-2-yn-1-yl)-1,2,4-oxadiazol-5-amine]: the melting point fell in the range of 112 to 114 °C. Moreover, the CC50 at 48 h in data set [1] (L929 fibroblasts) was more than 200 µM. Half-maximal cytotoxicity in [2] (J774.G8 macrophages) (CC50 at 48 h) was put at 160 ± 6.5 µM. Also, in data set [3] (setting [12]), the IC50 turned out to be 84.7 ± 3.6 µM. For the same molecule, in [3], the “SI Pro/L929” value was found to be 4.4; the “SI (promastigotes vs fibroblasts and J774.G8 macrophages)” value is “lower than 5.0”.
Take `COc1ccc(-c2noc(NC3CCCCC3)n2)cc1` [Ox1, N-Cyclohexyl-3-(4-methoxyphenyl)-1,2,4-oxadiazol-5-amine]: the melting point was 109 to 110 °C. Moreover, in data set [1] (L929 fibroblasts), the CC50 at 48 h is more than 200 µM. Also, in [4], the “reduction of cell viability, fibroblasts” value amounted to 20%. The CC50 at 48 h in data set [2] (J774.G8 macrophages) was more than 200 µM. Moreover, the “reduction of cell viability, macrophages J774.G8” value in data set [5] was determined as 26%. In data set [3] (25 µM, 48 h), the “reduction in promastigote viability” value worked out at 32%. In addition, the “reduction of growth of parasites” value in data set [3] (50 µM, 24 h) amounted to 66%. Besides, the promastigote viability inhibition result in [3] (200 µM, regardless of the cultivation time (24 and 48 h)) is recorded as “exceeded 90%”. In [3] (CC50 PeM/IC50 promastigotes), the “SI against promastigotes compared to peritoneal macrophages” value was 18.7. The IC50 in [3] (setting [12]) is 32.9 ± 2.2 µM. In [3] (promastigote IC50 comparison), the “increase in activity compared to compound Ox3” value was “about 10 times”. In [3], the “SI Pro/J774.G8” value stood at 8.9 and the “SI Pro/L929” value came out at 9.7. Besides, the CC50 at 48 h in data set [6] is 617 µM. In data set [7] (400 µM, compared to control cells), the “reduction of viability of PeMs” value came to 13%. Besides, in data set [7] (6.25 to 200 µM), the “viability of macrophages (PeM)” value is “significantly increased”. In data set [8] (setting [13]), the “survival index (SuI) of amastigotes inside the macrophages” value is “significantly decreased” and the “number of intracellular amastigotes / parasites in infected PeMs” value is on record as “significantly decreased”. The molecule also displayed an SI against amastigotes in data set [8] (CC50 for PeM/IC50 of amastigote forms) of 61.7. In addition, in data set [8] (Leishmania infantum, Peritoneal macrophage, 24 h, read-out: IC50 for amastigote forms in PeMs), the IC50 came to 10 µM. In data set [9] (IC50 (32.98 µM)), the “percentage of rounding cells” value stood at 7%. Also, in data set [9] (twice the IC50 (65.96 µM)), the “percentage of rounding cells” value came to 30%. In data set [10] (2× IC50 of Ox1, 48 h), the “variation index of membrane potential (Rhodamine 123)” value is on record as −0.32. Also, the “variation index of membrane potential (Rhodamine 123)” value in [10] (IC50 of Ox1, 48 h) is listed as “+0.28”. The “membrane potential (Rhodamine 123 fluorescence) vs control” value in data set [10] (½ IC50 of Ox1, 48 h) is “No difference”.
Molecule `c1ccc(-c2noc(NC3CCCCC3)n2)cc1` [Ox, N-Cyclohexyl-3-(phenyl)-1,2,4-oxadiazol-5-amine] registered a melting point of 125 to 127 °C.
With `Cc1ccc(-c2noc(NC3CCCCC3)n2)cc1` [Ox4, N-Cyclohexyl-3-(4-methylphenyl)-1,2,4-oxadiazol-5-amine], the CC50 at 48 h in data set [1] (read-out: CC50 L929) and in data set [2] (read-out: CC50 J774.G8) was more than 200 µM throughout. Moreover, the IC50 in [3] (48 h) worked out at 174 ± 12.3 µM. Besides, the “SI Pro/L929” value in data set [3] is recorded as 1.7.
Turning to `C#CCN(c1nc(-c2cccc([N+](=O)[O-])c2)no1)C1CCCCC1` [Ox7, N-Cyclohexyl-3-(3-nitrophenyl)-N-(prop-2-yn-1-yl)-1,2,4-oxadiazol-5-amine], the melting point lay within 94 to 96 °C. In data set [1] (L929 fibroblasts), this molecule had a CC50 at 48 h of more than 200 µM. The CC50 at 48 h in data set [2] (J774.G8 macrophages) was 197 ± 6 µM. The IC50 in data set [3] (setting [12]) is 98.2 ± 1.4 µM. Further, the “SI Pro/J774.G8” value in data set [3] came out at 2.0.
Regarding `O=[N+]([O-])c1ccc(-c2noc(NC3CCCCC3)n2)cc1` [Ox3, N-Cyclohexyl-3-(4-nitrophenyl)-1,2,4-oxadiazol-5-amine], the melting point lay within 201 to 203 °C. This molecule also came in with a CC50 at 48 h in data set [1] (L929 fibroblasts) of more than 200 µM. For the same molecule, the CC50 at 48 h in [2] (J774.G8 macrophages) is more than 200 µM. Besides, the IC50 in data set [3] (setting [12]) came out at 336 ± 12.1 µM. Further, the “SI Pro/L929” value in data set [3] stood at 1.1.
Take “antimoniate of meglumine [glucantime, reference compound]”: the “number of intracellular amastigotes / parasites in infected PeMs” value in data set [8] (setting [13]) is given as “reduced the number of intracellular amastigotes”. In addition, the IC50 in [11] was 346 µM.
Molecule `C#CCN(c1nc(-c2ccc([N+](=O)[O-])cc2)no1)C1CCCCC1` [Ox6, N-Cyclohexyl-3-(4-nitrophenyl)-N-(prop-2-yn-1-yl)-1,2,4-oxadiazol-5-amine] displayed a melting point of 108 to 110 °C. The CC50 at 48 h in data set [1] (L929 fibroblasts) is more than 200 µM. The same molecule returned a CC50 at 48 h in data set [2] (J774.G8 macrophages) of more than 200 µM. Moreover, the IC50 in [3] (setting [12]) amounted to 92.2 ± 1.9 µM. In addition, in data set [3], the “SI Pro/J774.G8” value amounted to 2.5; the “SI Pro/L929” value is 3.7; the “SI (promastigotes vs fibroblasts and J774.G8 macrophages)” value is given as “lower than 5.0”.
Consider `C[C@@H]1[C@H](O)[C@@H](C)/C=C/C=C/C=C/C=C/C=C/C=C/C=C/[C@H](O[C@@H]2O[C@H](C)[C@@H](O)[C@H](N)[C@@H]2O)C[C@@H]2O[C@](O)(C[C@@H](O)C[C@@H](O)[C@H](O)CC[C@@H](O)C[C@@H](O)CC(=O)O[C@H]1C)C[C@H](O)[C@H]2C(=O)O` [Amphotericin B, reference compound], for which the “number of intracellular amastigotes / parasites in infected PeMs” value in data set [8] (setting [13]) is “reduced the number of intracellular amastigotes”. Moreover, the IC50 in data set [11] was 10.6 µM.

As usually defined, the CC50 is the concentration that lowers cell viability or growth by half. As a reminder, the IC50 is the midpoint of a concentration-inhibition curve. By melting point is commonly meant the temperature of the solid-liquid transition.
